Key:
Type in all cases: in vivo
AMAPA [1] = test: Pre-emergence biological efficacy; details: Amaranthus palmeri, 312 h, evaluated after 13 days, read-out: damage to plant (100=total damage to plant; 0=no damage to plant)
Procedure: (§1) Seeds of weeds and/or crops were sown in standard soil in pots. After cultivation for one day under controlled conditions in a glasshouse (at 24/19° C., day/night; 16 hours light), the plants were sprayed with an aqueous spray solution derived from the formulation of the technical active ingredient in a small amount of acetone and a special solvent and emulsifier mixture referred to as IF50 (11.12% Emulsogen EL360 TM+44.44% N-methylpyrrolidone+44.44% Dowanol DPM glycol ether), to create a 50g/l solution which was then diluted using 0.2% Genapol XO80 as diluent to give the desired final dose of test compound.
(§2) The test plants were then grown under controlled conditions in the glasshouse (at 24/18° C., day/night; 15 hours light; 50% humidity) and watered twice daily. After 13 days the test was evaluated (100=total damage to plant; 0=no damage to plant).

ECHCG [2] = test: Pre-emergence biological efficacy; details: Echinochloa crus-galli, 312 h, evaluated after 13 days, read-out: damage to plant (100=total damage to plant; 0=no damage to plant)
Procedure: as §1, §2

EPHHL [3] = test: Pre-emergence biological efficacy; details: Euphorbia heterophylla, 312 h, evaluated after 13 days, read-out: damage to plant (100=total damage to plant; 0=no damage to plant)
Procedure: as §1, §2

IPOHE [4] = test: Pre-emergence biological efficacy; details: Ipomoea hederacea, 312 h, evaluated after 13 days, read-out: damage to plant (100=total damage to plant; 0=no damage to plant)
Procedure: as §1, §2

LOLPE [5] = test: Pre-emergence biological efficacy; details: Lolium perenne, 312 h, evaluated after 13 days, read-out: damage to plant (100=total damage to plant; 0=no damage to plant)
Procedure: as §1, §2

SETFA [6] = test: Pre-emergence biological efficacy; details: Setaria faberi, 312 h, evaluated after 13 days, read-out: damage to plant (100=total damage to plant; 0=no damage to plant)
Procedure: as §1, §2

AMAPA [7] = test: Post-emergence biological efficacy; details: Amaranthus palmeri, 312 h, evaluated after 13 days, read-out: damage to plant (100=total damage to plant; 0=no damage to plant)
Procedure: as §1, with “14 days” for “one day”
(§3) The test plants were then grown under controlled conditions in the glasshouse (at 24/18° C., day/night; 15 hours light; 50% humidity)and watered twice daily. After 13 days the test was evaluated (100=total damage to plant; 0=no damage to plant).

CHEAL = test: Post-emergence biological efficacy; details: Chenopodium album, 312 h, evaluated after 13 days, read-out: damage to plant (100=total damage to plant; 0=no damage to plant)
Procedure: as §1, with “14 days” for “one day”
as §3

DIGSA = test: Post-emergence biological efficacy; details: Digitaria sanguinalis, 312 h, evaluated after 13 days, read-out: damage to plant (100=total damage to plant; 0=no damage to plant)
Procedure: as §1, with “14 days” for “one day”
as §3

ECHCG [8] = test: Post-emergence biological efficacy; details: Echinochloa crus-galli, 312 h, evaluated after 13 days, read-out: damage to plant (100=total damage to plant; 0=no damage to plant)
Procedure: as §1, with “14 days” for “one day”
as §3

ELEIN = test: Post-emergence biological efficacy; details: 312 h, evaluated after 13 days, read-out: damage to plant (100=total damage to plant; 0=no damage to plant)
Procedure: as §1, with “14 days” for “one day”
as §3

EPHHL [9] = test: Post-emergence biological efficacy; details: Euphorbia heterophylla, 312 h, evaluated after 13 days, read-out: damage to plant (100=total damage to plant; 0=no damage to plant)
Procedure: as §1, with “14 days” for “one day”
as §3

IPOHE [10] = test: Post-emergence biological efficacy; details: Ipomoea hederacea, 312 h, evaluated after 13 days, read-out: damage to plant (100=total damage to plant; 0=no damage to plant)
Procedure: as §1, with “14 days” for “one day”
as §3

LOLPE [11] = test: Post-emergence biological efficacy; details: Lolium perenne, 312 h, evaluated after 13 days, read-out: damage to plant (100=total damage to plant; 0=no damage to plant)
Procedure: as §1, with “14 days” for “one day”
as §3

SETFA [12] = test: Post-emergence biological efficacy; details: Setaria faberi, 312 h, evaluated after 13 days, read-out: damage to plant (100=total damage to plant; 0=no damage to plant)
Procedure: as §1, with “14 days” for “one day”
as §3

Compound | pest or weed control at 250 g/ha (AMAPA [1]) | pest or weed control at 250 g/ha (ECHCG [2]) | pest or weed control at 250 g/ha (EPHHL [3]) | pest or weed control at 250 g/ha (IPOHE [4]) | pest or weed control at 250 g/ha (LOLPE [5]) | pest or weed control at 250 g/ha (SETFA [6]) | pest or weed control at 250 g/ha (AMAPA [7]) | pest or weed control at 250 g/ha (CHEAL) | pest or weed control at 250 g/ha (DIGSA) | pest or weed control at 250 g/ha (ECHCG [8]) | pest or weed control at 250 g/ha (ELEIN) | pest or weed control at 250 g/ha (EPHHL [9]) | pest or weed control at 250 g/ha (IPOHE [10]) | pest or weed control at 250 g/ha (LOLPE [11]) | pest or weed control at 250 g/ha (SETFA [12])
CCOC(=O)C1(C)CC(c2cc(-c3cccnc3)c(F)cc2Cl)=NO1 (stereo not drawn) [Compound 1-247, Ethyl 3-[2-chloro-4-fluoro-5-(3-pyridyl)phenyl]-5-methyl-4H-isoxazole-5-carboxylate] | 60% | 0% | 0% | 0% | 0% | 0% | 0% | 0% | 0% | 0% | 10% | 10% | 0% | 0% | 0%
CCOC(=O)C1(C)CC(c2cc(-c3cnccc3OC)c(F)cc2Cl)=NO1 (stereo not drawn) [Compound 1-259, Ethyl 3-[2-chloro-4-fluoro-5-(4-methoxy-3-pyridyl)phenyl]-5-methyl-4H-isoxazole-5-carboxylate] | 0% | 0% | 0% | 0% | 0% | 0% | 60% | 80% | 40% | 20% | 20% | 20% | 30% | 0% | 30%
CCOC(=O)C1(C)CC(c2cc(-c3cncc(Cl)c3)c(F)cc2Cl)=NO1 (stereo not drawn) [Compound 1-271, Ethyl 3-[2-chloro-5-(5-chloro-3-pyridyl)-4-fluoro-phenyl]-5-methyl-4H-isoxazole-5-carboxylate] | 0% | 0% | 0% | 0% | 0% | 0% | 90% | 70% | 20% | 20% | 20% | 40% | 100% | 0% | 50%
CCOC(=O)C1(C)CC(c2cc(-c3ccc(C)nc3)c(F)cc2Cl)=NO1 (stereo not drawn) [Compound 1-283, Ethyl 3-[2-chloro-4-fluoro-5-(6-methyl-3-pyridyl)phenyl]-5-methyl-4H-isoxazole-5-carboxylate] | 0% | 0% | 20% | 0% | 0% | 0% | 70% | 30% | 20% | 10% | 0% | 60% | 40% | 0% | 20%
CCOC(=O)C1(C)CC(c2cc(-c3ccnc(F)c3)c(F)cc2Cl)=NO1 (stereo not drawn) [Compound 1-295, Ethyl 3-[2-chloro-4-fluoro-5-(2-fluoro-4-pyridyl)phenyl]-5-methyl-4H-isoxazole-5-carboxylate] | 0% | 0% | 0% | 0% | 0% | 0% | 90% | 70% | 10% | 10% | 10% | 50% | 50% | 0% | 10%
